Drawing on PMC13100289 (The Journal of Biological Chemistry, 2026), this text covers IC50 for 1 compound.

This test deals with T1, Neutral endopeptidase (neprilysin) (Homo sapiens, UniProt P08473).
T1 construct: purchased; host or cells: CHO cells
Kind of test: Metalloprotease selectivity panel (Eurofins Panlabs): neprilysin. Format: biochemical. Conditions: assay validation, read-out: IC50 of reference inhibitor. The text has this: Supplementary Table S1. […] Reference compounds were used to validate the assay for inhibition.

T1 sequence (P08473 whole entry): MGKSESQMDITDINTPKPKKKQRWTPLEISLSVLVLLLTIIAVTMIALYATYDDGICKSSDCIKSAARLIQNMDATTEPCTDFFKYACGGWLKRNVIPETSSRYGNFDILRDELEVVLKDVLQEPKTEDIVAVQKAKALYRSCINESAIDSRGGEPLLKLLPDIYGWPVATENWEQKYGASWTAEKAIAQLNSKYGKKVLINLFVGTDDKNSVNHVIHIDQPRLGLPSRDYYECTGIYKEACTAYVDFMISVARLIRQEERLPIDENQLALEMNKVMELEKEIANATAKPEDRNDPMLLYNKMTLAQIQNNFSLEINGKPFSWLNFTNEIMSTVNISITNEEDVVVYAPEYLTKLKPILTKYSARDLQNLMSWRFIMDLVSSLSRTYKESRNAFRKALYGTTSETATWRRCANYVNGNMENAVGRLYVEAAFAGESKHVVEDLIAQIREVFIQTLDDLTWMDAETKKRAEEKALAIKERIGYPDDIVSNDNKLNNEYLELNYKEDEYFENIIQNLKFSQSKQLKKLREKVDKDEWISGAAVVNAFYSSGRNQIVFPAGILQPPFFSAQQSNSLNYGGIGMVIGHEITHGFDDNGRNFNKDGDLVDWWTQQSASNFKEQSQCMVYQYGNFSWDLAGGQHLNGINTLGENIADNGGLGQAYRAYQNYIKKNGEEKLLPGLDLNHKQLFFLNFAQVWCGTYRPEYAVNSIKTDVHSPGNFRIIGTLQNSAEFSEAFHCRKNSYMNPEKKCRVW

For `CC(C)C[C@H](NP(=O)(O)O[C@@H]1O[C@@H](C)[C@H](O)[C@@H](O)[C@H]1O)C(=O)N[C@@H](Cc1c[nH]c2ccccc12)C(=O)O` [Phosphoramidon], the IC50 is 1.99 nM.

What is called IC50 is the midpoint of a concentration-inhibition curve.
